Tested on: CFTL12 Mast cells stimulated with IgE/antigen complex (TNF-alpha release)
Assay: Inhibition of TNF-alpha production from IgE/antigen stimulated mast cells
Assay type: cell-based, mouse
Conditions: 60 minutes before IgE/antigen stimulation; for inhibition of TNF-alpha release: carrageenan 200 μg/ml, 6 hours at 37° C., supernatant ELISA (FIG. 1)
Protocol: TNF-alpha is a mediator that is central in an inflammatory process as observed during infections, and autoimmune diseases. It is released by white blood cells, mast cells, endothelium and several other tissues in the course of damage.
CFTL12 Mast cells were incubated with iota or kappa carrageenan at a concentration of 200 μg/ml. 60 minutes later the cells were stimulated with an IgE/antigen complex. Cells were incubated at 37° C. for 6 hours and TNF-alpha in the supernatant was determined by a commercial mouse TNF-alpha ELISA (Bender-Med-Systems). Error bars indicate the standard deviation between 4 independent wells. 1=non-stimulated; 2=IgE/antigen stimulation; 3=lambda carrageenan pretretament+subsequent IgE/antigen stimulation; 4=kappa carrageenan pretreatment++subsequent IgE/antigen stimulation, 5=iota-carrageenan pretreatment+subsequent IgE/antigen stimulation. The Y-axis mirrors the concentration of TNF-alpha in pg/ml.
Mast cells were incubated with iota-carrageenan at varying concentrations. 60 minutes later the cells were stimulated with IgE/antigen complex. Cells were incubated at 37° C. for 6 hours and TNF-alpha in the supernatant was determined by a commercial mouse TNF-alpha ELISA (Bender-Med-Systems). Error bars indicate the standard deviation between 4 independent wells. 1=non-stimulated; 2=IgE/antigen stimulated, 3=iota-carrageenan 200 μg/ml, 4=iota-carrageenan 66 μg/ml, 5=iota-carrageenan 6.6 μg/ml, 6=iota-carrageenan 0.6 μg/ml. The Y-axis represents the concentration of TNF-alpha in pg/ml.

Row | Substance | dose dependence of inhibition of TNF-alpha production (200, 66, 6.6, 0.6 μg/ml, 6 hours (FIG. 2)) | inhibition of TNF-alpha release
1 | iota-carrageenan | Dose-Dependent Inhibition | inhibit TNF-alpha release
2 | kappa carrageenan |  | inhibit TNF-alpha release
3 | lambda carrageenan [reference compound] |  | not
